Where a name gives a salt, the structure may show the parent alone.
How the values were obtained:
[1] = molecular target: T1, C1r from human plasma, activated, two-chain form (Homo sapiens, UniProt P00736); experiment: Color substrate test for C1r inhibition (Example A); assay type: biochemical; details: amidolytic C1r activity, substrate Cbz-Gly-Arg-S-Bzl; read-out: C1R IC50 according to Example A
T1 construct: from tissue; host or cells: human plasma
T1 sequence (P00736 18-463 partner limits assumed): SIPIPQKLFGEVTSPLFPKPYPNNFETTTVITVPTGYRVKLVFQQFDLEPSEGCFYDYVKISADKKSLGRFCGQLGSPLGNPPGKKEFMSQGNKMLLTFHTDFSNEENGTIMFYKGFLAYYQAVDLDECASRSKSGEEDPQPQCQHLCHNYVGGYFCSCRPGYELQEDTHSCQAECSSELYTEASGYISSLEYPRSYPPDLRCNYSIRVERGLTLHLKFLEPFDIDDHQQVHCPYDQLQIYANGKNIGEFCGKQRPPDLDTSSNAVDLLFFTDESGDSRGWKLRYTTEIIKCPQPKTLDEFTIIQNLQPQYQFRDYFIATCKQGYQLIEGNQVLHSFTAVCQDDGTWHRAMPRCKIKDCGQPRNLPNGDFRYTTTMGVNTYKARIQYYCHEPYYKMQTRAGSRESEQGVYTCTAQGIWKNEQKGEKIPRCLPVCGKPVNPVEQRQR
T1 sequence (P00736 464-705 limits assumed): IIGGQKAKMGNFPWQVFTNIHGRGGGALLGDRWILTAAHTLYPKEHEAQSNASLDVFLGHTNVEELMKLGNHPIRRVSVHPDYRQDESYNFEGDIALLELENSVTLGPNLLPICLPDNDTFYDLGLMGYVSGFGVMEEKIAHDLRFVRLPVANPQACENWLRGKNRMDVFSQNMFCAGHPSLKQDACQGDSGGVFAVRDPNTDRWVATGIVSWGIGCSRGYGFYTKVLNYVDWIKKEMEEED
From the text: Color Substrate Test for C1r Inhibition

[2] = molecular target: T2, C1s from human plasma, activated, two-chain form (Homo sapiens, UniProt P09871); experiment: Color substrate test for C1s inhibition (Example B); assay type: biochemical; details: amidolytic C1s activity, substrate Cbz-Gly-Arg-S-Bzl; read-out: C1S IC50 according to Example B
T2 construct: from tissue; host or cells: human plasma
T2 sequence (P09871 16-437 partner limits assumed): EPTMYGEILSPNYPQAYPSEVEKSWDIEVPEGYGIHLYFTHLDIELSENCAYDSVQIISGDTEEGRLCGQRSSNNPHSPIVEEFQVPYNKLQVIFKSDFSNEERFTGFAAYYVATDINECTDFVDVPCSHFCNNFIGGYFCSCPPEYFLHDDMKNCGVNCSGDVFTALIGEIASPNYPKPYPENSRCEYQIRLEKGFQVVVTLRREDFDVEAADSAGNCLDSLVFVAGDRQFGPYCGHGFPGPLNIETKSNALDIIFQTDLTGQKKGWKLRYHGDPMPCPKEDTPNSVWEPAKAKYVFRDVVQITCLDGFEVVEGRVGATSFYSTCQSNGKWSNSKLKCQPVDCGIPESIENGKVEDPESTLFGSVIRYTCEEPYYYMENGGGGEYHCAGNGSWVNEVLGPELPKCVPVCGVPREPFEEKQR
T2 sequence (P09871 438-688 limits assumed): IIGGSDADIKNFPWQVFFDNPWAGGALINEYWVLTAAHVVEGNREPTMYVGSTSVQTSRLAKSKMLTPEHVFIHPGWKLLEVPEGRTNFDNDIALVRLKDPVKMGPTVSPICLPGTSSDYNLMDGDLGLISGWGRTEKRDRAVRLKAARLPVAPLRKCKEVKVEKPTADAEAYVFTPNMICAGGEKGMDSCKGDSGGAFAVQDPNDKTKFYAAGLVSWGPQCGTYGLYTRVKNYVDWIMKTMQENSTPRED
From the text: Material and Methods: Color Subrate Test for C1s Inhibition

IC50 [1] [µM]	IC50 [2] [µM]	Molecule
–	6	CC(C)(C)OC(=O)N[C@H](CC(=O)OCc1ccccc1)C(=O)N1CCC[C@H]1C(=O)NCc1ccc(C(=N)N)cc1 [Example 6, Boc-(D)Asp(OBn)-Pro-NH-p-amb.CH3COOH]
> 100	6	N=C(N)c1ccc(CNC(=O)[C@@H]2CCCN2C(=O)CNC(=O)CCc2ccccc2)cc1 [Example 8, C6H5—CH2—CH2—CO-Gly-Pro-NH-p-amb.HI]
> 100	30	N=C(N)c1ccc(CNC(=O)[C@@H]2CCCN2C(=O)[C@@H](Cc2ccccc2)NCCCS(=O)(=O)O)cc1 [Example 12, HO3S—(CH2)3-(D)Phe-Pro-NH-p-amb.HCl]
> 100	20	CS(=O)(=O)N[C@@H](C(=O)N1CCC[C@H]1C(=O)NCc1ccc(C(=N)N)nc1)C1CCCCC1 [Example 14, CH3—SO2-(D)Chg-Pro-NH-3-(6-am)-pico.CH3COOH]
40	4	COC(=O)CS(=O)(=O)N[C@@H](C(=O)N1CCC[C@H]1C(=O)NCc1ccc(C(=N)N)nc1)C1CCCCC1 [Example 17, CH3OOC—CH2—SO2-(D)Chg-Pro-NH-3-(6-am)-pico.CH3COOH]
10	7	N=C(N)c1ccc(CNC(=O)[C@@H]2C=CCN2C(=O)[C@H](NCC(=O)O)C2CCCCC2)cn1 [Example 18, HOOC—CH2-(D)Chg-Pyr-NH-3-(6-am)-pico.CH3COOH]
4	1	N=C(N)c1ccc(CNC(=O)[C@@H]2C=CCN2C(=O)[C@@H](CC2CCCCC2)NS(=O)(=O)Cc2ccc(N)cc2)cn1 [Example 21, H2N-p-C6H4CH2—SO2-(D)Cha-Pyr-NH-3-(6-am)-pico-HCl]
0.5	0.8	N=C(N)c1ccc(CNC(=O)[C@@H]2C=CCN2C(=O)[C@H](NS(=O)(=O)Cc2ccc(N)cc2)C2CCCCC2)cn1 [Example 23, H2N-p-C6H4—CH2—SO2-(D)Chg-Pyr-NH-CH2-3-(6-am)-pico.HCl]
> 100	0.8	N=C(N)c1ccc(CNC(=O)[C@@H]2CCCN2C(=O)[C@H](NCCCCCC(=O)O)C2CCCCC2)cn1 [Example 24, HOOC—(CH2)5-(D)Chg-Pro-NH-3-(6-am)-pico.CH3COOH]
> 100	2	N=C(N)c1ccc(CNC(=O)[C@@H]2CCCN2C(=O)[C@H](NCCCCC(=O)O)C2CCCCC2)cn1 [Example 26, HOOC—(CH2 )4-(D)Chg-Pro-NH-3-(6-am)-pico.CH3COOH]
0.9	0.6	N=C(N)c1ccc(CNC(=O)[C@@H]2C=CCN2C(=O)[C@H](NCC(=O)O)C2CCCCC2)s1 [Example 29, HOOC—CH2-(D)Chg-Pyr-NH-CH2-5-(2-am)-thioph.CH3COOH]
40	40	N=C(N)c1ccc(CNC(=O)[C@@H]2CSCN2C(=O)[C@@H](CC2CCCCC2)NCC(=O)O)s1 [Example 33, HOOC—CH2-(D)Cha-Thz-4-CO—NH—CH2-5-(2-am)-thioph.2HCl]

The next lines start with the molecule.

Molecule	IC50 [1] [µM]	IC50 [2] [µM]
2-C6H10—CH2-Gly-Pro-NH-p-amb.2HCl [Example 7]	> 100	4
N=C(N)c1ccc(CNC(=O)[C@@H]2CCCN2C(=O)[C@@H](Cc2ccccc2)NS(=O)(=O)CC(F)(F)F)cc1 [Example 1, CF3—CH2—SO2-(D)Phe-Pro-NH-p-amb.CH3COOH]	> 100	6
CCCCCCCCS(=O)(=O)N[C@H](Cc1ccccc1)C(=O)N1CCC[C@H]1C(=O)NCc1ccc(C(=N)N)cc1 [Example 2, n-Octyl-SO2-(D)Phe-Pro-NH-p-amb.CH3COOH]	50	20
N=C(N)c1ccc(CNC(=O)[C@@H]2CCCN2C(=O)[C@@H](Cc2ccccc2)NS(=O)(=O)c2cccnc2)cc1 [Example 3, 3-Py-SO2-(D)Phe-Pro-NH-p-amb.CH3COOH]	> 100	30
CS(=O)(=O)N[C@H](CC1CCCCC1)C(=O)N1CC=C[C@H]1C(=O)NCc1ccc(C(=N)N)cc1 [Example 4, CH3—SO2-(D)Cha-Pyr-NH-p-amb.CH3COOH]	30	3
CC(C)[C@@H](N)C(=O)N1CCC[C@H]1C(=O)NCc1ccc(C(=N)N)cc1 [Example 5, H-(D)Val-Pro-NH-p-amb.2HCl]	–	10
N=C(N)c1ccc(CNC(=O)[C@@H]2CCCN2C(=O)CNC(=O)CCCc2ccccc2)cc1 [Example 9, C6H5—(CH2)3—CO-Gly-Pro-NH-p-amb.HI]	> 100	20
CC1CCN[C@@H](C(=O)N2CCC[C@H]2C(=O)NCc2ccc(C(=N)N)cc2)C1 (stereo partly drawn) [Example 10, (D)(4-Me)Pic-Pro-NH-p-amb.2CH3COOH]	> 100	20
N=C(N)c1ccc(CNC(=O)[C@@H]2CCCN2C(=O)[C@H]2Cc3ccccc3CN2)cc1 [Example 11, H-(D)3-Tic-Pro-NH-p-amb.2CH3COOH]	> 100	30
CS(=O)(=O)N[C@H](CC1CCCCC1)C(=O)N1CC=C[C@H]1C(=O)NCc1ccc(C(=N)N)nc1 [Example 13, CH3—SO2-(D)Cha-Pyr-NH-3-(6-am)-pico.CH3COOH]	30	10
N=C(N)c1ccc(CNC(=O)[C@@H]2C=CCN2C(=O)[C@@H](CC2CCCCC2)NS(=O)(=O)Cc2ccccc2)cn1 [Example 15, C6H5—CH2—SO2-(D)Cha-Pyr-NH-3-(6-am)-pico.CH3COOH]	3	2
N=C(N)c1ccc(CNC(=O)[C@@H]2CCCN2C(=O)[C@H](NS(=O)(=O)CC(=O)O)C2CCCCC2)cn1 [Example 16, HOOC—CH2—SO2-(D)Chg-Pro-NH-3-(6-am)-pico.CH3COOH]	> 100	20
N=C(N)c1ccc(CNC(=O)[C@@H]2C=CCN2C(=O)C(CCC2CCCCC2)NCC(=O)O)cn1 (stereo partly drawn) [Example 19, HOOC—CH2-HCha-Pyr-NH-3-(6-am)-pico]	30	30
CC(C)(C)OC(=O)Nc1ccc(CS(=O)(=O)N[C@H](CC2CCCCC2)C(=O)N2CC=C[C@H]2C(=O)NCc2ccc(C(=N)N)nc2)cc1 [Example 20, Boc-NH-p-C6H4CH2—SO2-(D)Cha-Pyr-NH-3-(6-am)-pico-CH3COOH]	0.6	2
CC(C)(C)OC(=O)Nc1ccc(CS(=O)(=O)N[C@@H](C(=O)N2CC=C[C@H]2C(=O)NCc2ccc(C(=N)N)nc2)C2CCCCC2)cc1 [Example 22, Boc-NH-p-C6H4—CH2—SO2-(D)Chg-Pyr-NH-3-(6-am)-pico.CH3COOH]	0.9	0.6
CCOC(=O)CCCCCN[C@@H](C(=O)N1CCC[C@H]1C(=O)NCc1ccc(C(=N)N)nc1)C1CCCCC1 [Example 25, C2H5OOC—(CH2)5-(D)Chg-Pro-NH-3-(6-am)-pico.CH3COOH]	50	6
CC(C)(C)OC(=O)CCCN[C@@H](C(=O)N1CCC[C@H]1C(=O)NCc1ccc(C(=N)N)nc1)C1CCCCC1 [Example 27, t-BUOOC—(CH2)3-(D)Chg-Pro-NH-3-(6-am)-pico.CH3COOH]	10	20
N=C(N)c1ccc(CNC(=O)[C@@H]2C=CCN2C(=O)CN(Cc2ccccc2)Cc2ccccc2)cn1 [Example 28, (C6H5—CH2)2-Gly-Pyr-NH-3-(6-am)-pico.CH3COOH]	> 100	20
N=C(N)c1ccc(CNC(=O)[C@@H]2CCN2C(=O)[C@H](NCC(=O)O)C2CCCCC2)s1 [Example 31, HOOC—CH2-(D)Chg-Aze-NH-CH2-5-(2-am)-thioph]	3	10
N=C(N)c1ccc(CNC(=O)[C@@H]2C=CCN2C(=O)[C@@H](CC2CCCCC2)NCC(=O)O)s1 [Example 32, HOOC—CH2-(D)Cha-Pyr-NH—CH2-5-(2-am)-thioph.CH3COOH]	10	30
N=C(N)Nc1ncc(CNC(=O)[C@@H]2C=CCN2C(=O)[C@@H](CC2CCCCC2)NCC(=O)O)s1 [Example 54, N-(Hydroxycarbonyl-methylene)-(D)cyclohexylalanyl-3,4-dehydroprolyl-[5-(2-guanidino)thiazolylmethyl]amide Bishydrochloride]	–	8

Reference: patent publication US6683055B1, “Low molecular weight inhibitors of complement proteases” (BASF Aktiengesellschaft, priority 1999, dated 2004)
